Assay results from ChEMBL document CHEMBL3044672, “N9- and N7-(Chloromethyl Phenymethyl)Chloropurine Derivatives from , '-Dichloroxylenes: Synthesis and Anticancer Activity” (2005).

Experiments:
Type in all cases: functional
[1] = tested on: MCF7; assay: Cytotoxicity against Homo sapiens (human) MCF7 cells after 48 hr by sulforhodamine B assay; conditions: MCF7, 48 h
[2] = tested on: U-251; assay: Cytotoxicity against Homo sapiens (human) U251 cells after 48 hr by sulforhodamine B assay; conditions: U-251, 48 h
[3] = tested on: SK-MEL-5; assay: Cytotoxicity against Homo sapiens (human) SK-MEL-5 cells after 48 hr by sulforhodamine B assay; conditions: SK-MEL-5, 48 h
[4] = tested on: BT-549; assay: Cytotoxicity against Homo sapiens (human) BT549 cells after 48 hr by sulforhodamine B assay; conditions: BT-549, 48 h
[5] = tested on: OVCAR-8; assay: Cytotoxicity against Homo sapiens (human) OVCAR8 cells after 48 hr by sulforhodamine B assay; conditions: OVCAR-8, 48 h
[6] = tested on: SK-MEL-2; assay: Cytotoxicity against Homo sapiens (human) SK-MEL-2 cells after 48 hr by sulforhodamine B assay; conditions: SK-MEL-2, 48 h
[7] = tested on: SF-268; assay: Cytotoxicity against Homo sapiens (human) SF268 cells after 48 hr by sulforhodamine B assay; conditions: SF-268, 48 h
[8] = tested on: UO-31; assay: Cytotoxicity against Homo sapiens (human) UO31 cells after 48 hr by sulforhodamine B assay; conditions: UO-31, 48 h
[9] = tested on: OVCAR-5; assay: Cytotoxicity against Homo sapiens (human) OVCAR5 cells after 48 hr by sulforhodamine B assay; conditions: OVCAR-5, 48 h
[10] = tested on: SK-MEL-28; assay: Cytotoxicity against Homo sapiens (human) SK-MEL-28 cells after 48 hr by sulforhodamine B assay; conditions: SK-MEL-28, 48 h
[11] = tested on: HOP-62; assay: Cytotoxicity against Homo sapiens (human) HOP62 cells after 48 hr by sulforhodamine B assay; conditions: HOP-62, 48 h
[12] = tested on: IGROV-1; assay: Cytotoxicity against Homo sapiens (human) IGROV1 cells after 48 hr by sulforhodamine B assay; conditions: IGROV-1, 48 h
[13] = tested on: SK-OV-3; assay: Cytotoxicity against Homo sapiens (human) SKOV3 cells after 48 hr by sulforhodamine B assay; conditions: SK-OV-3, 48 h
[14] = tested on: HT-29; assay: Cytotoxicity against Homo sapiens (human) HT-29 cells after 48 hr by sulforhodamine B assay; conditions: HT-29, 48 h
[15] = tested on: CAKI-1; assay: Cytotoxicity against Homo sapiens (human) Caki1 cells after 48 hr by sulforhodamine B assay; conditions: CAKI-1, 48 h
[16] = tested on: LOX IMVI; assay: Cytotoxicity against Homo sapiens (human) LOXIMVI cells after 48 hr by sulforhodamine B assay
[17] = Cytotoxicity against Homo sapiens (human) NCI-ADR-RES cells after 48 hr by sulforhodamine B assay
[18] = tested on: DU-145; assay: Cytotoxicity against Homo sapiens (human) DU145 cells after 48 hr by sulforhodamine B assay; conditions: DU-145, 48 h
[19] = tested on: OVCAR-3; assay: Cytotoxicity against Homo sapiens (human) OVCAR3 cells after 48 hr by sulforhodamine B assay; conditions: OVCAR-3, 48 h
[20] = tested on: M14; assay: Cytotoxicity against Homo sapiens (human) M14 cells after 48 hr by sulforhodamine B assay; conditions: M14, 48 h
[21] = tested on: HCC 2998; assay: Cytotoxicity against Homo sapiens (human) HCC2998 cells after 48 hr by sulforhodamine B assay; conditions: HCC 2998, 48 h
[22] = tested on: MOLT-4; assay: Cytotoxicity against Homo sapiens (human) MOLT4 cells after 48 hr by sulforhodamine B assay; conditions: MOLT-4, 48 h
[23] = tested on: NCI-H322M; assay: Cytotoxicity against Homo sapiens (human) NCI-H322M cells after 48 hr by sulforhodamine B assay
[24] = tested on: MCF7; assay: Cytotoxicity against Homo sapiens (human) MCF7 cells assessed as cell growth at 10^-4 M after 48 hr by Alamar blue assay; conditions: MCF7, 48 h, read-out: Activity
[25] = tested on: CCRF-CEM; assay: Cytotoxicity against Homo sapiens (human) CCRF-CEM cells after 48 hr by sulforhodamine B assay
[26] = tested on: T47D; assay: Cytotoxicity against Homo sapiens (human) T47D cells after 48 hr by sulforhodamine B assay
[27] = tested on: NCI-H460; assay: Cytotoxicity against Homo sapiens (human) NCI-H460 cells after 48 hr by sulforhodamine B assay; conditions: NCI-H460, 48 h
[28] = tested on: SF-295; assay: Cytotoxicity against Homo sapiens (human) SF295 cells after 48 hr by sulforhodamine B assay; conditions: SF-295, 48 h
[29] = tested on: PC-3; assay: Cytotoxicity against Homo sapiens (human) PC3 cells after 48 hr by sulforhodamine B assay; conditions: PC-3, 48 h
[30] = tested on: NCI-H23; assay: Cytotoxicity against Homo sapiens (human) NCI-H23 cells after 48 hr by sulforhodamine B assay; conditions: NCI-H23, 48 h
[31] = tested on: EKVX; assay: Cytotoxicity against Homo sapiens (human) EKVX cells after 48 hr by sulforhodamine B assay
[32] = tested on: RXF 393; assay: Cytotoxicity against Homo sapiens (human) RXF393 cells after 48 hr by sulforhodamine B assay; conditions: RXF 393, 48 h
[33] = read-out: LC50 (the source's name)

ClCc1ccc(Cn2cnc3nc(Cl)nc(Cl)c32)cc1
GI50 [1]: 4.16 µM
LC50 (concentration killing 50% of cells) [1]: 83.2 µM
TGI [1]: 17 µM
GI50 [2]: 1.77 µM
LC50 (concentration killing 50% of cells) [2]: 5.75 µM
TGI [2]: 3.23 µM
GI50 [3]: 2.45 µM
LC50 [3]: 31.6 µM
TGI [3]: 9.12 µM
GI50 [4]: 1.86 µM
LC50 (50% lethal concentration) [4]: 6.45 µM
TGI [4]: 3.46 µM
GI50 [5]: 1.99 µM
LC50 (concentration killing 50% of cells) [5]: 8.31 µM
TGI [5]: 4.07 µM
GI50 [6]: 1.12 µM
LC50 (concentration killing 50% of cells) [6]: 6.45 µM
TGI [6]: 2.69 µM
GI50 [7]: 1.99 µM
TGI [7]: 3.98 µM
CC50 [7, 33]: 7.94 µM
GI50 [8]: 1.44 µM
LC50 (concentration causing 50% net cell kill) [8]: 5.62 µM
TGI [8]: 2.88 µM
GI50 [9]: 2.18 µM
TGI [9]: 4.26 µM
CC50 [9, 33]: 8.31 µM
GI50 [10]: 2.18 µM
LC50 (concentration killing 50% of cells) [10]: > 100 µM
TGI [10]: 5.12 µM
GI50 [11]: 1.9 µM
TGI [11]: 3.89 µM
CC50 [11, 33]: 7.94 µM
GI50 [12]: 1.41 µM
LC50 [12]: 5.75 µM
TGI [12]: 2.81 µM
GI50 [13]: 2.34 µM
LC50 [13]: 18.2 µM
TGI [13]: 5.01 µM
GI50 [14]: 3.54 µM
TGI [14]: > 100 µM
CC50 [14, 33]: > 100 µM
GI50 [15]: 1.44 µM
TGI [15]: 2.75 µM
CC50 [15, 33]: 5.37 µM
GI50 [16]: 1.62 µM
LC50 [16]: 6.45 µM
TGI [16]: 3.23 µM
GI50 [17]: 2.08 µM
TGI [17]: 4.46 µM
GI50 [18]: 1.81 µM
LC50 [18]: 6.6 µM
TGI [18]: 3.46 µM
GI50 [19]: 0.3 µM
LC50 [19]: 2.51 µM
TGI [19]: 0.72 µM
GI50 [20]: 1.44 µM
LC50 [20]: 6.91 µM
TGI [20]: 3.16 µM
GI50 [21]: 2.04 µM
TGI [21]: 3.8 µM
CC50 [21, 33]: 7.07 µM
GI50 [22]: 1.38 µM
TGI [22]: 5.49 µM
CC50 [22, 33]: > 100 µM
GI50 [23]: 0.67 µM
TGI [23]: 1.9 µM
CC50 [23, 33]: 4.46 µM
growth at 100 µM [24]: 1%
GI50 [25]: 14.8 µM
TGI [25]: 31.6 µM
CC50 [25, 33]: 66.1 µM
GI50 [26]: 10.2 µM
LC50 [26]: > 100 µM
TGI [26]: 46.8 µM
GI50 [27]: 15.5 µM
TGI [27]: 35.5 µM
CC50 [27, 33]: 79.4 µM
GI50 [28]: 1.81 µM
TGI [28]: 3.31 µM
CC50 [28, 33]: 5.88 µM
GI50 [29]: 17.8 µM
LC50 (concentration causing 50% cell kill) [29]: 75.9 µM
TGI [29]: 37.1 µM
GI50 [30]: 2.34 µM
TGI [30]: 4.57 µM
CC50 [30, 33]: 8.91 µM
GI50 [31]: 1.9 µM
TGI [31]: 3.46 µM
CC50 [31, 33]: 6.3 µM
GI50 [32]: 1.65 µM
TGI [32]: 3.98 µM
